Here are results for 1 compound from ChEMBL document CHEMBL4190187, “Discovery of pyrazolopyrimidine derivatives as novel inhibitors of ataxia telangiectasia and rad3 related protein (ATR)” (Bioorg Med Chem Lett, 2017).

Test [1] addresses Serine/threonine-protein kinase MRCK alpha (Homo sapiens) (UniProt Q5VT25). Nature of the test: Inhibition of recombinant human MRCKalpha (1 to 473 residues) at 1 uM using KKRNRTLTV as substrate after 40 mins in presence of [gamma-33P]ATP by scintillation counting method.
Test [2] concerns the target Receptor tyrosine-protein kinase erbB-4 (Homo sapiens) (UniProt Q15303). The experiment in a line: Inhibition of recombinant human ErbB4 (706 to 991 residues) at 1 uM using poly(Glu,Tyr) 4:1 as substrate after 40 mins in presence of [gamma-33P]ATP by scintillation counting method.
In test [3] the target is Serine/threonine-protein kinase PAK 6 (Homo sapiens) (UniProt Q9NQU5). Nature of the test: Inhibition of recombinant human PAK6 (382 to end residues) at 1 uM using RRRLSFAEPG as substrate after 40 mins in presence of [gamma-33P]ATP by scintillation counting method.
The target of test [4] is Leukocyte tyrosine kinase receptor (Homo sapiens) (UniProt P29376). The experiment in a line: Inhibition of recombinant human LTK (450 to end residues) at 1 uM using GEEPLYWSFPAKKK as substrate after 40 mins in presence of [gamma-33P]ATP by scintillation counting method.
Test [5] has as its target Ephrin type-A receptor 4 (Homo sapiens) (UniProt P54764). Nature of the test: Inhibition of recombinant human EPHA4 (601 to 892 residues) at 1 uM using poly(Glu,Tyr) 4:1 as substrate after 40 mins in presence of [gamma-33P]ATP by scintillation counting method.
Test [6] deals with NUAK family SNF1-like kinase 2 (Homo sapiens) (UniProt Q9H093). Nature of the test: Inhibition of recombinant full-length human NUAK2 at 1 uM using KKKVSRSGLYRSPSMPENLNRPR as substrate after 40 mins in presence of [gamma-33P]ATP by scintillation counting method.
NUAK family SNF1-like kinase 2 (Homo sapiens), sequence (Q9H093 whole entry): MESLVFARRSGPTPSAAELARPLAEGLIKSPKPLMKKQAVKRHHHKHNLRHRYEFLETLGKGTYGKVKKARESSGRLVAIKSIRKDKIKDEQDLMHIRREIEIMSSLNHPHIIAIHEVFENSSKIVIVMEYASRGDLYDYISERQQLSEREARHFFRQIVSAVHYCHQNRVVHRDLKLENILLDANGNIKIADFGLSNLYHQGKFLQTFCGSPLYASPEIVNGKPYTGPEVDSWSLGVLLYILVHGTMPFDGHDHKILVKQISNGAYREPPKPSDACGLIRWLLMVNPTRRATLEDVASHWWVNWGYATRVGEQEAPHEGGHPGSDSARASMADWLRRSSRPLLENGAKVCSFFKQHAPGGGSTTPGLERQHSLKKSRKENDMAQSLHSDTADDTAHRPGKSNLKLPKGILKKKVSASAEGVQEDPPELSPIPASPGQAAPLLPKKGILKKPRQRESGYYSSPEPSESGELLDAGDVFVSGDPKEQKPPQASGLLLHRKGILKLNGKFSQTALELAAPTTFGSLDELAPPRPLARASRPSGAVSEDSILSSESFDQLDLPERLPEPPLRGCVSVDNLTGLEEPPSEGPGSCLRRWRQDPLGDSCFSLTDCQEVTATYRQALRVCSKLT
The target of test [7] is Dual specificity protein kinase CLK4 (Homo sapiens) (UniProt Q9HAZ1). Nature of the test: Inhibition of recombinant human CLK4 (128 to end residues) at 1 uM using YRRAAVPPSPSLSRHSSPHQS(p)EDEEE as substrate after 40 mins in presence of [gamma-33P]ATP by scintillation counting method.
Dual specificity protein kinase CLK4 (Homo sapiens), sequence (Q9HAZ1 whole entry, looked up): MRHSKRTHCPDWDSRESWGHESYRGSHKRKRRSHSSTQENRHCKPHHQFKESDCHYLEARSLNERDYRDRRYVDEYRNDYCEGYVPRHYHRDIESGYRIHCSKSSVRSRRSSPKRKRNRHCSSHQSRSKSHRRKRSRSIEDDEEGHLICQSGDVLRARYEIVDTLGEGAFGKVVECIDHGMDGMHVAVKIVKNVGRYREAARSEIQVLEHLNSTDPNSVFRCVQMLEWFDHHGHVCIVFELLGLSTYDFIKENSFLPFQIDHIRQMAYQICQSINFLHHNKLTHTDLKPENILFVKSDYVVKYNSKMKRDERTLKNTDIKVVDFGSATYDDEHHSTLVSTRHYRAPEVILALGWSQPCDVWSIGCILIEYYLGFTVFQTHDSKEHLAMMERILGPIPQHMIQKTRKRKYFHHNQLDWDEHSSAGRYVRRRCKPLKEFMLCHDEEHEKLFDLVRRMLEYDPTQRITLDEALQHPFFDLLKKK
The target of test [8] is Serine/threonine-protein kinase D3 (Homo sapiens) (UniProt O94806). Nature of the test: Inhibition of recombinant full-length human PKD3 at 1 uM using KKLRRTLSVA as substrate after 40 mins in presence of [gamma-33P]ATP by scintillation counting method.
In test [9] the target is STE20-like serine/threonine-protein kinase (Homo sapiens) (UniProt Q9H2G2). The experiment in a line: Inhibition of recombinant human SLK (1 to 373 residues) at 1 uM using RLGRDKYKTLRQIRQ as substrate after 40 mins in presence of [gamma-33P]ATP by scintillation counting method.
STE20-like serine/threonine-protein kinase (Homo sapiens), sequence (Q9H2G2 whole entry, looked up, the tested form may be a part): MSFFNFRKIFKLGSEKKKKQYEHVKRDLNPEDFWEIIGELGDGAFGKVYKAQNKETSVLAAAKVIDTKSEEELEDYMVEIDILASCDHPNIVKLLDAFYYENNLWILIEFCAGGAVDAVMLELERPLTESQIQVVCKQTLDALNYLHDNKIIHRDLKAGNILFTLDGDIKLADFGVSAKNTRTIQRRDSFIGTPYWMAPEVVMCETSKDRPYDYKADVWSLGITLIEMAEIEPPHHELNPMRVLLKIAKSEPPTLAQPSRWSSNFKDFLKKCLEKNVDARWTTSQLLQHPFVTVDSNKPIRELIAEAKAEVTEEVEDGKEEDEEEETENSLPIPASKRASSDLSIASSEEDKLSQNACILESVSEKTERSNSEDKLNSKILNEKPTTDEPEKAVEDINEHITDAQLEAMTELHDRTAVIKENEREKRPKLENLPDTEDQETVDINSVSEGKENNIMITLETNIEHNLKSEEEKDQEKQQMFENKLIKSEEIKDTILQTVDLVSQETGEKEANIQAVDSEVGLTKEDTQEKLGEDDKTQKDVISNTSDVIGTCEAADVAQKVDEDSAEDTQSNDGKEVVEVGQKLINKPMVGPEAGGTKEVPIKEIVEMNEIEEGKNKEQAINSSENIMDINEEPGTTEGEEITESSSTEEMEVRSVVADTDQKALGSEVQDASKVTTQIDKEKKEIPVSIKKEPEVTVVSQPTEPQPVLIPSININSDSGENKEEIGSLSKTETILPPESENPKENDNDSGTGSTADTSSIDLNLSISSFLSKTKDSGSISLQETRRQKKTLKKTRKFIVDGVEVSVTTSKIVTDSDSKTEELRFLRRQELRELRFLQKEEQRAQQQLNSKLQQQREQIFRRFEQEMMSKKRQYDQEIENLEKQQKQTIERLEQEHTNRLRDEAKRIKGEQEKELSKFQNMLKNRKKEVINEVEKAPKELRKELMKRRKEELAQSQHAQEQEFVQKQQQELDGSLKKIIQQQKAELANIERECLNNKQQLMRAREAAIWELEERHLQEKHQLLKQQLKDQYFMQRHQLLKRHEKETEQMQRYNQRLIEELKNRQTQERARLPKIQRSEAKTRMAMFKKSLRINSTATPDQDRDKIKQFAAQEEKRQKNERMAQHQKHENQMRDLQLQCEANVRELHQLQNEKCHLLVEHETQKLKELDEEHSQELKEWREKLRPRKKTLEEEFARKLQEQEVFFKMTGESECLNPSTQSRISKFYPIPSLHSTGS
Test [10] addresses Bone morphogenetic protein receptor type-2 (Homo sapiens) (UniProt Q13873). Nature of the test: Inhibition of recombinant human BMPR2 (172 to 734 residues) at 1 uM using myelin basic protein as substrate after 120 mins in presence of [gamma-33P]ATP by scintillation counting method.
The target in test [11] is Serine/threonine-protein kinase NIM1 (Homo sapiens) (UniProt Q8IY84). Nature of the test: Inhibition of recombinant full-length human NIM1 at 1 uM using KKKVSRSGLYRSPSMPENLNRPR as substrate after 40 mins in presence of [gamma-33P]ATP by scintillation counting method.
Serine/threonine-protein kinase NIM1 (Homo sapiens), sequence (Q8IY84 whole entry): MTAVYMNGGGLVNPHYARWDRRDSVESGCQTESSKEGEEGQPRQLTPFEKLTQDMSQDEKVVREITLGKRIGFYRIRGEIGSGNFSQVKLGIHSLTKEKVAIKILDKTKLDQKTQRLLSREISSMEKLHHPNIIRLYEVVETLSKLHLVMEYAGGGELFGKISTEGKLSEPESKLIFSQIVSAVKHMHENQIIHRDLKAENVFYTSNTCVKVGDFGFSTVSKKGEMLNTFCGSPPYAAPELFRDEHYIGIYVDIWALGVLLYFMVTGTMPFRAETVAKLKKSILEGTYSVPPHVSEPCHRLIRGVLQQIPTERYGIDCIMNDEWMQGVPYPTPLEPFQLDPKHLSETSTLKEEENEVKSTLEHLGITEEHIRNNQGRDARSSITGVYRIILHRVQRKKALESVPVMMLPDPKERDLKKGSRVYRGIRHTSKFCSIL
The test system of test [12] is Hepatocyte growth factor receptor (Homo sapiens), P08581 [D1246N]. Nature of the test: Inhibition of recombinant human Met D1246N mutant (974 to end residues) at 1 uM using KKKGQEEEYVFIE as substrate after 40 mins in presence of [gamma-33P]ATP by scintillation counting method.
Test [13] deals with Tau-tubulin kinase 1 (Homo sapiens) (UniProt Q5TCY1). The experiment in a line: Inhibition of recombinant human TTBK1 (1 to 479 residues) at 1 uM using casein as substrate after 40 mins in presence of [gamma-33P]ATP by scintillation counting method.
In test [14] the target is Serine/threonine-protein kinase Nek6 (Homo sapiens) (UniProt Q9HC98). The experiment in a line: Inhibition of recombinant human NEK6 (2 to end residues) at 1 uM using FLAKSFGSPNRAYKK as substrate after 40 mins in presence of [gamma-33P]ATP by scintillation counting method.
Serine/threonine-protein kinase Nek6 (Homo sapiens), sequence (Q9HC98 whole entry, the tested form may be a part): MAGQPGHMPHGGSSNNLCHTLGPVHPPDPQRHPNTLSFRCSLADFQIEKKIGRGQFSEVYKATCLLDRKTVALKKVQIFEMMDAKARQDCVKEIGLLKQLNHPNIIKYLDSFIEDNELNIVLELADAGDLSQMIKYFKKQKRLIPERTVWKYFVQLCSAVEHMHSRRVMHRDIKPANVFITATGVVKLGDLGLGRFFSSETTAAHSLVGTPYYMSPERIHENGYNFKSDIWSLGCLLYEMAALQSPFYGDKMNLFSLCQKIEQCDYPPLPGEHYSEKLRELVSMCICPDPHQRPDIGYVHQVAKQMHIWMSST
The species named for another test is Homo sapiens. The experiment in a line: Inhibition of recombinant full-length human p110a/recombinant p65a (1 to 571 residues) at 1 uM using phosphatidylinositol 4,5-bisphosphate as substrate after 40 mins in presence of [gamma-33P]ATP by scintillation counting method.
Test [15] has as its target Serine/threonine-protein kinase BRSK2 (Homo sapiens) (UniProt Q8IWQ3). Nature of the test: Inhibition of recombinant human BrSK2 (2 to end residues) at 1 uM using KKLNRTLSFAEPG as substrate after 40 mins in presence of [gamma-33P]ATP by scintillation counting method.
In test [16] the target is Dual specificity protein kinase TTK (Homo sapiens) (UniProt P33981). The experiment in a line: Inhibition of recombinant full-length human TTK at 1 uM using myelin basic protein as substrate after 40 mins in presence of [gamma-33P]ATP by scintillation counting method.
Dual specificity protein kinase TTK (Homo sapiens), sequence (P33981 whole entry): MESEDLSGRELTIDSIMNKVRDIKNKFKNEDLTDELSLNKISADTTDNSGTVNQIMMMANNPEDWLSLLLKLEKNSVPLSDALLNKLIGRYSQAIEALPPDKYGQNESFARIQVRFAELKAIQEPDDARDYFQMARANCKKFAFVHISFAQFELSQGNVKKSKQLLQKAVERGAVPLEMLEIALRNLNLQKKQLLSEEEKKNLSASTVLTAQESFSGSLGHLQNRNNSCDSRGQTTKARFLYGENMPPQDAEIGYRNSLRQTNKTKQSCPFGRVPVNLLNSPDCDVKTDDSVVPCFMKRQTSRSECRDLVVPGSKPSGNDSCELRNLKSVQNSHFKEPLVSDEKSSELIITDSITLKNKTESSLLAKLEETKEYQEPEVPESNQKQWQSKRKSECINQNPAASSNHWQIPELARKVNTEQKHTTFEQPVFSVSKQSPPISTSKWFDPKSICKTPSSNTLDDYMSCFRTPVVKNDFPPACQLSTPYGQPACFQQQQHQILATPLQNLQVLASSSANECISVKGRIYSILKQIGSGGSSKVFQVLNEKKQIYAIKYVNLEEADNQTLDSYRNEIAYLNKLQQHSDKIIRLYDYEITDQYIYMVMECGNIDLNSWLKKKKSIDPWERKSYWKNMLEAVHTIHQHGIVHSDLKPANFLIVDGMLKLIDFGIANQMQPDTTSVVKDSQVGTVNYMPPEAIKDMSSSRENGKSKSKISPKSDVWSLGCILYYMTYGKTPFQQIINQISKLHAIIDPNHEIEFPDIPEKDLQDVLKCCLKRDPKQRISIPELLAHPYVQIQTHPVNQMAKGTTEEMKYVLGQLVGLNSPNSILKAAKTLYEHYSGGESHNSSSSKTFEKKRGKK
For test [17], the target named is Serine/threonine-protein kinase 17B (Homo sapiens) (UniProt O94768). The experiment in a line: Inhibition of recombinant full-length human DRAK2 at 1 uM using KKRPQRRYSNVF as substrate after 120 mins in presence of [gamma-33P]ATP by scintillation counting method.
Serine/threonine-protein kinase 17B (Homo sapiens), sequence (O94768 whole entry): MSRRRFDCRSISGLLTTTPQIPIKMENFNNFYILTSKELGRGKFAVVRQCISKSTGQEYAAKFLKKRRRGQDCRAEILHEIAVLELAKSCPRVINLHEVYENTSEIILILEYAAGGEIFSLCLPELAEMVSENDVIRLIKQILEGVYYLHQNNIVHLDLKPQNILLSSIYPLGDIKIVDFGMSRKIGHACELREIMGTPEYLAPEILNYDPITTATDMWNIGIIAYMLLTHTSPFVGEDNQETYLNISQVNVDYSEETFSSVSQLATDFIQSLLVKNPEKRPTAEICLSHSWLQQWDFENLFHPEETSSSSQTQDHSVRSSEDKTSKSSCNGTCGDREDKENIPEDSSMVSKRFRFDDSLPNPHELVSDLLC
Test [18] has as its target Serine/threonine-protein kinase PRP4 homolog (Homo sapiens) (UniProt Q13523). The experiment in a line: Inhibition of recombinant human PRP4 (663 to end residues) at 1 uM using casein as substrate after 120 mins in presence of [gamma-33P]ATP by scintillation counting method.
In test [19] the target is Serine/threonine-protein kinase 32C (Homo sapiens) (UniProt Q86UX6). The experiment in a line: Inhibition of recombinant full-length human STK32C at 1 uM using casein as substrate after 120 mins in presence of [gamma-33P]ATP by scintillation counting method.
For test [20], the target named is Serine/threonine-protein kinase DCLK2 (Homo sapiens) (UniProt Q8N568). The experiment in a line: Inhibition of recombinant human DCAMKL2 (376 to end residues) at 1 uM using KKLNRTLSFAEPG as substrate after 40 mins in presence of [gamma-33P]ATP by scintillation counting method.
Test [21] has as its target Protein kinase C alpha type (Homo sapiens) (UniProt P17252). The experiment in a line: Inhibition of recombinant full-length human PKCalpha at 1 uM using histone H1 as substrate after 40 mins in presence of [gamma-33P]ATP by scintillation counting method.
For test [22], the target named is Tyrosine-protein kinase JAK3 (Homo sapiens) (UniProt P52333). The experiment in a line: Inhibition of recombinant human JAK3 (781 to end residues) at 1 uM using GGEEEEYFELVKKKK as substrate after 40 mins in presence of [gamma-33P]ATP by scintillation counting method.
The target in test [23] is Inhibitor of nuclear factor kappa-B kinase subunit alpha (Homo sapiens) (UniProt O15111). The experiment in a line: Inhibition of recombinant full-length human IKKalpha at 1 uM using peptide as substrate after 40 mins in presence of [gamma-33P]ATP by scintillation counting method.

The term inhibition denotes the drop in the measured response relative to a control, in per cent. Turning to `CS(=O)(=O)c1ccc(-n2nc(-c3cnc4[nH]ccc4c3)c3c(N)ncnc32)cc1`, the inhibition in test [1] is -3%; in test [2], 4%; in test [3], 7%; in [4] it was -3%; in test [5], 1%; in test [6], 18%. The inhibition in [7] was 11%; in test [8] it was 10%; in [9], 7%; in test [10], 2%; in [11], -5%; in test [12] it was 3%. In addition, the inhibition was 11% in test [13]; -4% in test [14]; 8% in the test listed under Homo sapiens; 3% in test [15]; -6% in [16]; 7% in [17]. Further, the inhibition is 4% in [18]; 5% in test [19]; -1% in test [20]; -1% in [21]; 4% in [22]; -5% in test [23].
